Legend:
Experiment in all cases: Bliss excess, mean over the matrix (fraction); higher = more synergy
[1] = tested on: C3A (Hepatocellular Carcinoma)
Procedure, shortened: (§1)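 Cell lines in DMEM/F12 or RPMI with 10% FBS were plated in 1536-well plates, held 24 hours at 37°C, 5% CO2, then given two-drug dose matrices for 72 hours (DMSO typically 0.2%). Viability was read by CellTiter-Glo 2.0 luminescence and scaled as inhibition from 0 (vehicle wells) to 1 (blank wells). Combination Emax is the second-highest inhibition in the matrix; Bliss excess is observed combination effect minus expected EA + EB − EA·EB, EA and EB being single-agent effects.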

[2] = tested on: COR-L95 (Small Cell Lung Carcinoma)
Procedure, shortened: as §1

IGR-1 (Melanoma) = tested on: IGR-1 (Melanoma)
Procedure, shortened: as §1

[3] = tested on: JiyoyeP-2003 (Burkitt's Lymphoma)
Procedure, shortened: as §1

[4] = tested on: KARPAS-1106P (B-Cell Non-Hodgkin's Lymphoma)
Procedure, shortened: as §1

[5] = tested on: KARPAS-620 (Plasma Cell Myeloma)
Procedure, shortened: as §1

[6] = tested on: KATOIII (Gastric Carcinoma)
Procedure, shortened: as §1

[7] = tested on: LS-513 (Colorectal Carcinoma)
Procedure, shortened: as §1

[8] = tested on: MFH-ino (Other Solid Carcinomas)
Procedure, shortened: as §1

[9] = tested on: NCI-H1299 (Non-Small Cell Lung Carcinoma)
Procedure, shortened: as §1

[10] = tested on: NCI-H1694 (Small Cell Lung Carcinoma)
Procedure, shortened: as §1

[11] = tested on: NCI-H1781 (Lung Adenocarcinoma)
Procedure, shortened: as §1

[12] = tested on: NCI-H1793 (Lung Adenocarcinoma)
Procedure, shortened: as §1

NCI-H2369 (Mesothelioma) = tested on: NCI-H2369 (Mesothelioma)
Procedure, shortened: as §1

NCI-H2595 (Mesothelioma) = tested on: NCI-H2595 (Mesothelioma)
Procedure, shortened: as §1

[13] = tested on: OCI-AML2 (Acute Myeloid Leukemia)
Procedure, shortened: as §1

[14] = tested on: SW1783 (Low Grade Glioma)
Procedure, shortened: as §1

[15] = tested on: SW1990 (Pancreatic Carcinoma)
Procedure, shortened: as §1

[16] = tested on: SW756 (Cervical Carcinoma)
Procedure, shortened: as §1

[17] = tested on: TGBC24TKB (Biliary Tract Carcinoma)
Procedure, shortened: as §1

| Compound | Bliss excess [1] | Bliss excess [2] | Bliss excess (IGR-1 (Melanoma)) | Bliss excess [3] | Bliss excess [4] | Bliss excess [5] | Bliss excess [6] | Bliss excess [7] | Bliss excess [8] | Bliss excess [9] | Bliss excess [10] | Bliss excess [11] | Bliss excess [12] | Bliss excess (NCI-H2369 (Mesothelioma)) | Bliss excess (NCI-H2595 (Mesothelioma)) | Bliss excess [13] | Bliss excess [14] | Bliss excess [15] | Bliss excess [16] | Bliss excess [17] |
| --- | --- | --- | --- | --- | --- | --- | --- | --- | --- | --- | --- | --- | --- | --- | --- | --- | --- | --- | --- | --- |
| CCN(CCO)CCCOc1ccc2c(Nc3cc(CC(=O)Nc4cccc(F)c4)[nH]n3)ncnc2c1 [AZD2811] + C=CCn1c(=O)c2cnc(Nc3ccc(N4CCN(C)CC4)cc3)nc2n1-c1cccc(C(C)(C)O)n1 [AZD1775] (first compound max 1 µM, partner max 1 µM) | -0.0279 | -0.0225 | -0.0438 | 0.0548 | -0.0241 | -0.0619 | -0.0459 | -0.0974 | -0.0399 | -0.024 | 0.0223 | 0.0795 | -0.0064 | -0.0434 | -0.0509 | 0.0077 | -0.073 | -0.0403 | -0.01 | -0.0717 |
| COc1nnc2ccc(N3CCC(c4ccc(OCCN5CCN(C)C(=O)[C@H]5C)cc4)CC3)nn12 [AZD5153] + CCN(CCO)CCCOc1ccc2c(Nc3cc(CC(=O)Nc4cccc(F)c4)[nH]n3)ncnc2c1 [AZD2811] (first compound max 1 µM, 7x7, partner max 1 µM) | -0.0567 | -0.0159 | 0.0249 | 0.0351 | 0.019 | -0.0158 | -0.0288 | -0.102 | -0.0811 | -0.0578 | 0.0041 | -0.129 | -0.0381 | -0.0563 | -0.0227 | 0.0016 | -0.038 | -0.0477 | -0.0067 | -0.0349 |
| COc1cccc(OCCCN)c1-c1cc(Nc2cnc(C#N)cn2)n[nH]1 [Prexasertib] + C[C@@H]1COCCN1C2=NC(=NC(=C2)C3(CC3)[S@](=N)(=O)C)C4=C5C=CNC5=NC=C4 [AZD6738] (first compound max 1 µM, 7x7, partner max 10 µM) | -0.034 | 0.0074 | -0.0091 | -0.0065 | -0.0714 | -0.0375 | 0.0124 | -0.0183 | 0.0457 | -0.0013 | -0.06 | 0.006 | -0.0106 | -0.0274 | -0.0279 | -0.021 | 0.0261 | -0.0446 | -0.0307 | -0.0038 |
| CC1(C)CCC(CN2CCN(c3ccc(C(=O)NS(=O)(=O)c4ccc(NCC5CCOCC5)c([N+](=O)[O-])c4)c(Oc4cnc5[nH]ccc5c4)c3)CC2)=C(c2ccc(Cl)cc2)C1 [Venetoclax] + Cc1cc2ncnn2cc1Nc1ncc2c(n1)n(C1CCOCC1)c(=O)n2C [AZD7648] (first compound max 1 µM, 7x7, partner max 10 µM) | -0.0588 | -0.039 | -0.0287 | -0.0604 | -0.0672 | 0.0454 | -0.0076 | -0.0294 | -0.0328 | -0.0352 | -0.0247 | -0.0274 | -0.042 | -0.0273 | -0.0185 | 0.0273 | -0.0395 | -0.0426 | 0.0031 | 0.0423 |
| CN(C)CCCOc1ccc(-c2ccc3ncc4c(c3c2)n(C2CCOCC2)c(=O)n4C)cn1 [AZD0156] + C[C@@H]1COCCN1C2=NC(=NC(=C2)C3(CC3)[S@](=N)(=O)C)C4=C5C=CNC5=NC=C4 [AZD6738] (first compound max 1 µM, 7x7, partner max 10 µM) | 0.0318 | -0.0363 | -0.0032 | 0.0501 | 0.0462 | 0.0058 | -0.0207 | 0.0068 | -0.0591 | 0.0234 | 0.0229 | -0.0229 | -0.0268 | -0.0253 | -0.0438 | -0.051 | -0.0435 | -0.0202 | -0.0006 | -0.0165 |
| COc1cccc2c1C(=O)c1c(O)c3c(c(O)c1C2=O)C[C@@](O)(C(=O)CO)C[C@@H]3O[C@H]1C[C@H](N)[C@H](O)[C@H](C)O1 [Doxorubicin] + Cc1cc2ncnn2cc1Nc1ncc2c(n1)n(C1CCOCC1)c(=O)n2C [AZD7648] (first compound max 1 µM, 7x7, partner max 10 µM) | -0.0065 | 0.0084 | 0.0132 | 0.094 | 0.0713 | -0.0381 | -0.0354 | 0.057 | 0.0216 | 0.0329 | 0.12 | 0.0578 | 0.0117 | 0.029 | 0.0084 | 0.0125 | 0.0262 | -0.0224 | 0.0541 | -0.002 |
| CN(CCO)CC[C@H](CSc1ccccc1)Nc1ccc(S(=O)(=O)NC(=O)c2ccc(N3CCC([C@@H](O)c4ccccc4-c4ccc(Cl)cc4)CC3)cc2)cc1S(=O)(=O)C(F)(F)F [AZD4320] + Cc1cc2ncnn2cc1Nc1ncc2c(n1)n(C1CCOCC1)c(=O)n2C [AZD7648] (first compound max 1 µM, 7x7, partner max 10 µM) | -0.0546 | 0.0276 | -0.0137 | -0.0322 | 0.0101 | 0.0178 | -0.0343 | -0.0543 | -0.0545 | -0.0408 | 0.0357 | -0.0388 | 0.0025 | -0.0411 | -0.0214 | 0.0136 | -0.044 | -0.0418 | -0.051 | 0.0059 |
| Cc1c2c(nn1C)CSCc1cc(n(C)n1)CSc1cc(c3ccccc3c1)OCCCc1c(C(=O)O)n(C)c3c-2c(Cl)ccc13 [AZD5991] + C[C@@H](Nc1cc(F)cc(F)c1)c1cc(C(=O)N(C)C)cc2c(=O)cc(N3CCOCC3)oc12 [AZD8186] (first compound max 1 µM, 7x7, partner max 3 µM) | -0.0375 | -0.0012 | -0.0031 | 0.0635 | 0.0154 | -0.0113 | -0.0132 | -0.0331 | -0.0452 | -0.0181 | 0.0151 | 0.0182 | -0.0254 | -0.004 | 0.0369 | -0.0721 | 0.0037 | -0.0948 | 0.0162 | 0.0027 |
| Cn1cnc2c(F)c(Nc3ccc(Br)cc3Cl)c(C(=O)NOCCO)cc21 [Selumetinib] + CC(C)n1c(=O)n(C)c2cnc3cc(F)c(-c4ccc(OCCCN5CCCCC5)nc4)cc3c21 [AZD1390] (first compound max 10 µM, 7x7, partner max 0.3 µM) | 0.0046 | -0.016 | -0.0297 | -0.0153 | -0.0376 | 0.0201 | 0.011 | -0.0395 | -0.023 | -0.012 | -0.0085 | -0.0223 | -0.0503 | -0.0442 | -0.0415 | -0.0079 | -0.048 | -0.0434 | -0.019 | -0.109 |
